The target in this assay is T1, RNase P holoenzyme (Thermotoga maritima, UniProt Q9X1H4).
T1 construct: GST (cleaved yes); made in house; host or cells: E. coli BL21(DE3)pLysS
T1 sequence (Q9X1H4 1-117): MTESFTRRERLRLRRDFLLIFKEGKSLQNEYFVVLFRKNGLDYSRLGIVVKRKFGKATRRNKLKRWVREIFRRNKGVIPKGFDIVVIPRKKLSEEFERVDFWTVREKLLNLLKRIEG
The assay can be described thus: Biolayer interferometry binding to immobilized RNase P holoenzyme. Also noted: species or system T. maritima. As to conditions: BLI, holoenzyme at 400 nM immobilized on Ni-NTA. The protocol:
Real-time binding assays of the holoenzyme, P RNA, P protein, the substrate minihelix and the 5′-leader to individual compounds were performed by biolayer interferometry using an Octet RED96 system (ForteBio). For the holoenzyme or P RNA, a 5′ biotinylated RNA oligonucleotide with the sequence 5′biotin-CAUUCCAGACGAU was immobilized on Super Streptavidin (SSA) biosensors. Then, a modified P RNA or holoenzyme was added. The P RNA modification consisted of a sequence with part of the P1 stem sequence complementary to the biotinylated oligonucleotide (AUCGUCUGGA) (Supplementary Figure S23A). P1 is far from the active site or other regions involved in specific interactions (Supplementary Figure S23B) ([19]). The activity of this construct was indistinguishable from the wild-type holoenzyme. Alternatively, the holoenzyme was immobilized through the His-tagged P protein from T. maritima at 0.05 mg/ml (3.4 μM) on Ni-NTA biosensors. […] Kinetic binding parameters were calculated using Data Analysis 8.2 (ForteBio, Inc.). […]
Figure 4. […] Symbols represent the mean ± standard error as determined from three independent experiments at each concentration. […] RNase P holoenzyme was immobilized on Ni-NTA biosensors, incubated with purpurin at varying concentrations (0–400 μM), and then the association and dissociation pre-tRNA was monitored. […]

Each structure is given as a SMILES string.

With `O=C1c2ccccc2C(=O)c2c(O)c(O)cc(O)c21` [Purpurin, 1,2,4-trihydroxyanthraquinone], the equilibrium dissociation constant (Kd) was 13.2 µM.

The record behind these values is PMC6614837 (Nucleic Acids Research, 2019).
